Assay results from patent US9315451B2, “Tetracycline compounds” (priority 2009, dated 2016).
Where two headings read alike, the source gives them in different places.

System: S. aureus Smith (ATCC 13709)
Assay: Mouse systemic infection (septicemia) model, S. aureus Smith
Type: in vivo
Conditions: Staphylococcus aureus, CD-1 female mice; for responders at 3 mg/kg: IV 3 mg/kg one hour post infection, read-out: SA Smith septicemia survival IV (3 mg/kg); for responders at 3 mg/kg / responders at 30 mg/kg: survival at 48 hours; for responders at 30 mg/kg: PO 30 mg/kg one hour post infection, read-out: SA Smith septicemia survival PO (30 mg/kg); for ED50: dose that prevents 50% of the mice from death, 48 hours
Description: Mouse Systemic Infection Protocol-S. aureus Smith Septicemia
Compounds were screened for antibacterial activity in vivo in a mouse systemic infection (septicemia) model. In the model, CD-1 female mice (18-22 grams) were injected IP with a S. aureus Smith (ATCC 13709) inoculum that results in 0% survival within 24 to 48 hours. The bacterial dose required to achieve this effect was previously established through virulence studies. At one hour post infection, mice received either […] IV or […] PO. Typically, six mice were treated per dose group. Animal survival was assessed and recorded for 48 hours. Percent survival at 48 hours was recorded and PD50 (mg/kg) was determined for each compound tested.

[1] = ATCC13709, PO, read-out: SA Smith septicemia PD50 PO

| Structure (SMILES) | responders at 3 mg/kg (ATCC13709, iv, 48 h) [%] | responders at 30 mg/kg (ATCC13709, po, 48 h) [%] | responders at 3 mg/kg (ATCC13709) [%] | responders at 30 mg/kg (ATCC13709) [%] | ED50 [1] [mg/kg] | ED50 (ATCC13709, IV, read-out: SA Smith septicemia PD50 IV) [mg/kg] |
| --- | --- | --- | --- | --- | --- | --- |
| CN(C)[C@@H]1C(O)=C(C(N)=O)C(=O)[C@@]2(O)C(O)=C3C(=O)c4c(O)cc(CN5CC6CCCCC6C5)c(Cl)c4C[C@H]3C[C@@H]12 (stereo partly drawn) [Compound S15-13-117] | 33 | 20 | – | – | – | – |
| CC1CCN(Cc2cc(O)c3c(c2Cl)C[C@H]2C[C@H]4[C@H](N(C)C)C(O)=C(C(N)=O)C(=O)[C@@]4(O)C(O)=C2C3=O)CC1 [Compound S15-13-182] | 33 | 67 | – | – | – | – |
| CN(C)[C@@H]1C(O)=C(C(N)=O)C(=O)[C@@]2(O)C(O)=C3C(=O)c4c(O)cc(CN5CC6CCCC6C5)c(Cl)c4C[C@H]3C[C@@H]12 (stereo partly drawn) [Compound S15-13-184] | 17 | 0 | – | – | – | – |
| C[C@@H]1CC[C@H](C)N1Cc1cc(O)c2c(c1Cl)C[C@H]1C[C@H]3[C@H](N(C)C)C(O)=C(C(N)=O)C(=O)[C@@]3(O)C(O)=C1C2=O [Compound S15-13-203] | 100 | 100 | – | – | – | – |
| CC(C)N(Cc1cc(O)c2c(c1Cl)C[C@H]1C[C@H]3[C@H](N(C)C)C(O)=C(C(N)=O)C(=O)[C@@]3(O)C(O)=C1C2=O)CC1CC1 [Compound S15-13-215] | 50 | 50 | – | – | – | – |
| C[C@@H]1CCC[C@H](C)N1Cc1cc(O)c2c(c1Cl)C[C@H]1C[C@H]3[C@H](N(C)C)C(O)=C(C(N)=O)C(=O)[C@@]3(O)C(O)=C1C2=O [Compound S15-13-221] | 33 | 50 | – | – | – | – |
| CN(C)[C@@H]1C(O)=C(C(N)=O)C(=O)[C@@]2(O)C(O)=C3C(=O)c4c(O)cc(CN5C6CCC5CC6)c(Cl)c4C[C@H]3C[C@@H]12 [Compound S15-13-222] | – | – | 100 | 100 | – | – |
| C[C@H]1CCC[C@H](C)N1Cc1cc(O)c2c(c1Cl)C[C@H]1C[C@H]3[C@H](N(C)C)C(O)=C(C(N)=O)C(=O)[C@@]3(O)C(O)=C1C2=O [Compound S15-13-225] | 100 | 100 | – | – | – | – |
| CN(C)[C@@H]1C(O)=C(C(N)=O)C(=O)[C@@]2(O)C(O)=C3C(=O)c4c(O)cc(CN5CC[C@H](F)C5)c(Cl)c4C[C@H]3C[C@@H]12 [Compound S15-13-226] | 100 | 83 | – | – | – | – |
| CN(C)C(=O)C(C)(C)N(C)Cc1cc(O)c2c(c1Cl)C[C@H]1C[C@H]3[C@H](N(C)C)C(O)=C(C(N)=O)C(=O)[C@@]3(O)C(O)=C1C2=O [Compound S15-13-227] | 17 | 0 | – | – | – | – |
| CN(C)c1c(CN2CCCC2(C)C)cc(O)c2c1C[C@H]1C[C@H]3[C@H](N(C)C)C(O)=C(C(N)=O)C(=O)[C@@]3(O)C(O)=C1C2=O [Compound S16-10-11] | 100 | 100 | – | – | 10 | – |
| CN(C)c1c(CNC2C3CC4CC(C3)CC2C4)cc(O)c2c1C[C@H]1C[C@H]3[C@H](N(C)C)C(O)=C(C(N)=O)C(=O)[C@@]3(O)C(O)=C1C2=O (stereo partly drawn) [Compound S16-10-18] | 17 | 0 | – | – | – | – |
| CN(C)c1c(CN(C)C2(C)CCC2)cc(O)c2c1C[C@H]1C[C@H]3[C@H](N(C)C)C(O)=C(C(N)=O)C(=O)[C@@]3(O)C(O)=C1C2=O [Compound S16-10-107] | 100 | 100 | – | – | – | – |
| CN(C)c1c(CN2CCCCCC2)cc(O)c2c1C[C@H]1C[C@H]3[C@H](N(C)C)C(O)=C(C(N)=O)C(=O)[C@@]3(O)C(O)=C1C2=O [Compound S16-10-177] | 100 | 100 | – | – | – | – |
| CN(C)[C@@H]1C(O)=C(C(N)=O)C(=O)[C@@]2(O)C(O)=C3C(=O)c4c(cc(F)c(CNCC(C)(C)C)c4O)C[C@H]3C[C@@H]12 [Compound S19-8-1] | 100 | 100 | – | – | 12.2 | 0.36 |
